Results: PubChem BioAssay AID504839 (Johns Hopkins Ion Channel Center, 2011)

Target: Potassium voltage-gated channel subfamily KQT member 2 (Rattus norvegicus) (UniProt O88943)
Experiment: PubChem AID 504839
Conditions: KCNQ2-CHO cells, automated patch clamp current

Potassium voltage-gated channel subfamily KQT member 2 (Rattus norvegicus), sequence (O88943 whole entry, looked up): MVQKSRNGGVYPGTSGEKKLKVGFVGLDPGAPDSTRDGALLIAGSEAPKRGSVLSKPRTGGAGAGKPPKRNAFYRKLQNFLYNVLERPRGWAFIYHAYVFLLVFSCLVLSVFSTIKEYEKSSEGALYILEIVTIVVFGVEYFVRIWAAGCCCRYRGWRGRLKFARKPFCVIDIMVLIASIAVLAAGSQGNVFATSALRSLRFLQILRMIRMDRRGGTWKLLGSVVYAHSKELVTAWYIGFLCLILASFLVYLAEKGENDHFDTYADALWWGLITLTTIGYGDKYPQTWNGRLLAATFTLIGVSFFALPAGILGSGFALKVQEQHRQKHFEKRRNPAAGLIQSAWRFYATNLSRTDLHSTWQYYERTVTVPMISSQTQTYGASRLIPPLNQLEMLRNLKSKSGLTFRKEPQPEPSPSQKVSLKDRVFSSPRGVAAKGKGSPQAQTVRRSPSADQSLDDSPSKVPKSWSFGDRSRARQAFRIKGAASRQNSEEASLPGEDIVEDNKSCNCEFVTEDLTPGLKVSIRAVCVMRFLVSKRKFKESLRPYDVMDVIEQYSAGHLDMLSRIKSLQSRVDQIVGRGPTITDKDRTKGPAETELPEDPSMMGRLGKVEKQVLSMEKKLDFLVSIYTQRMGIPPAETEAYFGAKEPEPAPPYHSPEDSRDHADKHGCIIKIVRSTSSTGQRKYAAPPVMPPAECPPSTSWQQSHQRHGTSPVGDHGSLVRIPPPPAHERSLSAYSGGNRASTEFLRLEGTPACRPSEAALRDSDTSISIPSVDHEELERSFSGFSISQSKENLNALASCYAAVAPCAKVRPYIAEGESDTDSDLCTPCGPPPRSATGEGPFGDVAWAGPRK

IC50: 160 nM
SMILES: CCC(C(=O)Nc1ccccc1N1CCCC1)c1ccccc1 (stereo unspecified)
